# According to patent publication US10538571B2, “Compositions and methods for neurological diseases” (Coda Biotherapeutics, Inc., priority 2017, dated 2020):
# Assays:
# Assay type in all cases: cell-based
# [1] = target: T1, SEQ ID NO:33 with substitution W77M (Homo sapiens, UniProt P36544, F159M/H163T/I152M/R155K/V154L/W156N/W77M/Y151P); test: Plate reader YFP quench (anion reporter) assay, dose response curves; conditions: FIG. 9B
# T1 construct: expressed in transfected cells; host or cells: Lenti-X 293T (HEK293T) cells, pcDNA3.1(+) plasmid
# Procedure: Lenti-X 293T cells (LX293T, Clontech) were maintained in DMEM containing 10% FBS and 1% penicillin/streptomycin (Invitrogen). […] The next day, the cells were transiently transfected with 0.1 μg of DNA per well using standard Fugene protocol (Promega). On the day of assay, cells were washed 2 times in 1× extracellular solution (1×ECS: 140 mM NaCl, 5 mM KCl, 1 mM MgCl2, 2 mM CaCl2, 10 mM HEPES, 10 mM glucose, pH 7.2, mOsms 300). After the last wash, 100 μL of 1×ECS was added to the wells and the plate was incubated at 37° C. for 30 min. While incubating the plate, the drugs were diluted to a 2× concentration in 1×ECS-NaI (same components as 1×ECS except the 140 mM NaCl was replaced by 140 mM NaI). The plates were then read on a Flexstation3 (Molecular Devices). Each well, 8 wells at a time, of the plate is read for 2 min using a Flexstation3 (Molecular Devices) as follows: 1) a baseline YFP fluorescence is read for 17 sec, 2) 100 μL of ligand is added, and 3) the changes in YFP fluorescence are then measured every 1.3 sec for the remaining time.
# To further tune the responsiveness of the engineered LGIC receptors to native and non-native ligands, the binding pocket of each ligand in the alpha7-nAChR was modeled and the amino acid residues that form the binding pocket were mapped. […]
# [2] = target: T2, SEQ ID NO:33 with substitution L131S (Homo sapiens, UniProt P36544, F159M/H163T/I152M/L131S/R155K/V154L/W156N/Y151P); test: Electrophysiology, automated patch clamp in HEK293T cells; conditions: FIG. 10A
# T2 construct: expressed in transfected cells; host or cells: Lenti-X 293T (HEK293T) cells, pcDNA3.1(+) plasmid
# Procedure: (§1) For HEK293T studies, cDNAs encoding ion channels were cloned into pcDNA3.1 using standard recombination techniques. HEK293T cells from Clontech (Lenti-X™ 293T Cell Line) were cultured in DMEM supplemented with 10% FBS and 1% Pen/Strep to 40-50% confluence using standard cell culture protocols, transfected with ion channel plasmids at a concentration of 18 μg per 15 cm dish using Fugene 6, and grown for an additional 24 hours. Cells were then assayed on a medium throughput electrophysiological system (IonFluxHT and/or Mercury, Fluxion Biosciences) in which dose-response relationships may be assessed through a microfluidics-based platform for establishing whole cell configurations. Ensemble plates were primed with extracellular buffer (140 mM NaCl, 5 mM KCl, 2 mM CaCl2, 1 mM MgCl2, 10 mM HEPES, and 10 mM glucose, pH 7.2 with NaOH, mOsm 310), intracellular buffer (145 mM CsCl, 2 mM CaCl2, 2 mM MgCl2, 10 mM HEPES, and 10 mM EGTA, pH 7.2 with CsOH, mOsm 305), as adapted from Lynagh and Lynch, and test compounds (stocks prepared fresh) diluted in extracellular buffer. Cells were then released from the plate with Accutase, centrifuged, resuspended in extracellular buffer, and loaded into Ensemble plates. Cells were then subjected to a standard protocol for priming, trapping, breaking, and establishing whole cell configuration, with cells held at −60 mV throughout the recording. After recording baseline, progressive doses of test compounds were applied using the IonFlux software to assess dose response relationships. Data were then analyzed off-line using custom Python scripts to convert data to .csv format, re-plot traces, and apply QC measurements to reject unstable recordings (i.e. thresholding based on access resistance and/or standard deviation in baseline, as well as artifact rejection). Peak currents were then calculated and population data were fit using a 4-parameter logistic equation as described by the Hill Equation
# [3] = target: T3, SEQ ID NO:33 with substitution S172D (Homo sapiens, UniProt P36544, F159M/H163T/I152M/R155K/S172D/V154L/W156N/Y151P); test: as above; conditions: FIG. 10B
# T3 construct: expressed in transfected cells; host or cells: Lenti-X 293T (HEK293T) cells, pcDNA3.1(+) plasmid
# Procedure: as §1
# [4] = target: T4, SEQ ID NO:33 with substitution L131T (Homo sapiens, UniProt P36544, F159M/H163T/I152M/L131T/R155K/V154L/W156N/Y151P); test: as above; conditions: FIG. 10D
# T4 construct: expressed in transfected cells; host or cells: Lenti-X 293T (HEK293T) cells, pcDNA3.1(+) plasmid
# Procedure: as §1
# [5] = target: T1, SEQ ID NO:33 with substitution W77M; test: as above; conditions: FIG. 10C
# Procedure: as §1
# T1 sequence (P36544 with tags, fused parts or gaps W77M/Y151P/I152M/V154L/R155K/W156N/F159M/H163T): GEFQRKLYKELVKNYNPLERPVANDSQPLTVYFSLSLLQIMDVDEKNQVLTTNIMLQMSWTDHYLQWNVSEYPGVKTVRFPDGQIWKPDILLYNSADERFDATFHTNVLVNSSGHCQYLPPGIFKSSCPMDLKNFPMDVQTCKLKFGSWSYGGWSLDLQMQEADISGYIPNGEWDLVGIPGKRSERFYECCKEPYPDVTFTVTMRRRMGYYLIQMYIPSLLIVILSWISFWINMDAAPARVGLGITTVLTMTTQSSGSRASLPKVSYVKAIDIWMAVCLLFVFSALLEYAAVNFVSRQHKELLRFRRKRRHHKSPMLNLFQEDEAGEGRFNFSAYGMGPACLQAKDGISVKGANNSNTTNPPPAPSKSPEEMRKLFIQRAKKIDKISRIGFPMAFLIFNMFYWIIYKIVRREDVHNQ
# T2 sequence (P36544 with tags, fused parts or gaps L131S/Y151P/I152M/V154L/R155K/W156N/F159M/H163T): as the sequence (P36544 with tags, fused parts or gaps W77M/Y151P/I152M/V154L/R155K/W156N/F159M/H163T) above, with M55W, L109S counted along it
# T3 sequence (P36544 with tags, fused parts or gaps Y151P/I152M/V154L/R155K/W156N/F159M/H163T/S172D): as the sequence (P36544 with tags, fused parts or gaps W77M/Y151P/I152M/V154L/R155K/W156N/F159M/H163T) above, with M55W, S150D counted along it
# T4 sequence (P36544 with tags, fused parts or gaps L131T/Y151P/I152M/V154L/R155K/W156N/F159M/H163T): as the sequence (P36544 with tags, fused parts or gaps W77M/Y151P/I152M/V154L/R155K/W156N/F159M/H163T) above, with M55W, L109T counted along it
smiles,measurement,setting,value
c1cnc2c(c1)C[C@@]1(CN3CCC1CC3)O2 [AZD-0328],increase in EC50 (rightward shift) compared to unmutated SEQ ID NO:33,[1],> 2 log
same,right-ward shift in EC50 relative to parental chimera SEQ ID NO:33,[2],2 fold
same,right-ward shift in EC50 relative to parental chimera SEQ ID NO:33,[3],2 fold
same,right-ward shift in EC50 relative to parental chimera SEQ ID NO:33,[4],~1 log
same,right-ward shift in EC50 relative to parental chimera SEQ ID NO:33,[5],> 2.5 log
